Assay results from patent US20200165291A1, “NEUROACTIVE STEROIDS, COMPOSITIONS, AND USES THEREOF” (Sage Therapeutics, Inc., priority 2014, published 2020).

Tests used:
[1] = biological target: [35S]-TBPS binding, rat brain cortical membranes (GABA receptor complex); experiment: [35S]-TBPS binding (steroid inhibition of TBPS binding); settings: in the presence of 5 μM GABA, read-out: 35S-TBPS Radioligand Displacement
Method: [35S]-t-Butylbicyclophosphorothionate (TBPS) binding assays using rat brain cortical membranes in the presence of 5 μM GABA has been described (Gee et al, J. Pharmacol. Exp. Ther. 1987, 241, 346-353; Hawkinson et al, Mol. Pharmacol. 1994, 46, 977-985; Lewin, A. H et al., Mol. Pharmacol. 1989, 35, 189-194).
Briefly, cortices are rapidly removed following decapitation of carbon dioxide-anesthetized Sprague-Dawley rats (200-250 g). The cortices are homogenized in 10 volumes of ice-cold 0.32 M sucrose using a glass/teflon homogenizer and centrifuged at 1500×g for 10 min at 4° C. The resultant supernatants are centrifuged at 10,000×g for 20 min at 4° C. to obtain the P2 pellets. The P2 pellets are resuspended in 200 mM NaCl/50 mM Na-K phosphate pH 7.4 buffer and centrifuged at 10,000×g for 10 min at 4° C. This washing procedure is repeated twice and the pellets are resuspended in 10 volumes of buffer. Aliquots (100 μL) of the membrane suspensions are incubated with 3 nM [^35S]-TBPS and 5 μL aliquots of test drug dissolved in dimethyl sulfoxide (DMSO) (final 0.5%) in the presence of 5 μM GABA. The incubation is brought to a final volume of 1.0 mL with buffer. Nonspecific binding is determined in the presence of 2 μM unlabeled TBPS and ranged from 15 to 25%. Following a 90 min incubation at room temp, the assays are terminated by filtration through glass fiber filters (Schleicher and Schuell No. 32) using a cell harvester (Brandel) and rinsed three times with ice-cold buffer. Filter bound radioactivity is measured by liquid scintillation spectrometry. Non-linear curve fitting of the overall data for each drug averaged for each concentration is done using Prism (GraphPad). […] The concentration of test compound producing 50% inhibition (IC50) of specific binding and the maximal extent of inhibition (Imax) are determined for the individual experiments with the same model used for the overall data and then the means±SEM.s of the individual experiments are calculated.
Various compounds are or can be screened to determine their potential as modulators of [^35S]-TBPS binding in vitro. These assays are or can be performed in accordance with the above discussed procedures.

[2] = biological target: T1, recombinant α1β2γ2 GABAA receptors (Homo sapiens, UniProt P14867+P47870); experiment: Patch clamp electrophysiology, QPatch, LTK cells; type: cell-based; settings: 10 μM test article, GABA EC20 = 2 μM, read-out: GABA (α1β2γ2) Qpatch in Ltk, % efficacy at 10 μM
T1 construct: expressed in transfected cells
T1 sequence (P14867 28-456): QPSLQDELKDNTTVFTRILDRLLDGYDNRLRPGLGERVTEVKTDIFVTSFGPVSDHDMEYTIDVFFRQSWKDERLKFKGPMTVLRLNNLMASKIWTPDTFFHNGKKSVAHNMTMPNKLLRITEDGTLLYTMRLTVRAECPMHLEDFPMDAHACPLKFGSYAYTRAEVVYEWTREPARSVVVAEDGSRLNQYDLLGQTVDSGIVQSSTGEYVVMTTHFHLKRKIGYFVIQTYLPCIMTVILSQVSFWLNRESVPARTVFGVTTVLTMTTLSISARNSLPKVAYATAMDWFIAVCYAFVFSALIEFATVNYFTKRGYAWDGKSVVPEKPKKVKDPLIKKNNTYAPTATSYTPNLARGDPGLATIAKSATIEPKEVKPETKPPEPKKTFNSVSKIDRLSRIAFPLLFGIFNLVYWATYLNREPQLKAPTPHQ
T1 sequence (P47870 25-512 limits assumed): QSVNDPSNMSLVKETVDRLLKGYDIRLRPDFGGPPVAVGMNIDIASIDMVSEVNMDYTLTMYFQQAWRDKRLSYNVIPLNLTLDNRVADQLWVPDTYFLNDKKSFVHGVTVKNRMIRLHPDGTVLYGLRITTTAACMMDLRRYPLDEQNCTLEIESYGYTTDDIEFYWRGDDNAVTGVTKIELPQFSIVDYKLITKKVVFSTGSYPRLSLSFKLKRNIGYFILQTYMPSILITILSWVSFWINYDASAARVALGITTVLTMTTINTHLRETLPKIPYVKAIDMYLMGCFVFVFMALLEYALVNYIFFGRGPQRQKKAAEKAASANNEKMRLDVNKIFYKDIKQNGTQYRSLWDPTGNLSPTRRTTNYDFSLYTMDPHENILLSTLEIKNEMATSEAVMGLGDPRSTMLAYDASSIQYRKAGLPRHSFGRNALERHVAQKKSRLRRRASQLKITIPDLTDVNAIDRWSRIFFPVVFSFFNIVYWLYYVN
T1 sequence (P18507 40-475 partner): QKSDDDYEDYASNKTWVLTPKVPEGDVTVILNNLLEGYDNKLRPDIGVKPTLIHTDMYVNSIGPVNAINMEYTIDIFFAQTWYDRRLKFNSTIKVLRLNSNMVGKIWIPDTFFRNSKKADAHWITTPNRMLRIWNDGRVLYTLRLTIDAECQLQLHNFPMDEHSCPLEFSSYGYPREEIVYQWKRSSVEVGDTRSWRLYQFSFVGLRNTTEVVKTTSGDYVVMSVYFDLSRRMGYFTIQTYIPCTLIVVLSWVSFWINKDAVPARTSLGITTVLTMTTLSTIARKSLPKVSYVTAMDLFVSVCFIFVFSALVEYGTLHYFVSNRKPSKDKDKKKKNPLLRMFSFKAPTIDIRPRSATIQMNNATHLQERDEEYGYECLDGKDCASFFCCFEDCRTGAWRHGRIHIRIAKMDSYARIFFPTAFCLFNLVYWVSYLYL

[3] = biological target: T2, recombinant α4β3δ GABAA receptors (Homo sapiens, UniProt P28472+P48169); experiment: Patch clamp electrophysiology, manual patch, CHO cells; type: cell-based; settings: 10 μM test article, GABA EC20 = 2 μM, read-out: GABA (α4β3δ) Manual patch in CHO, % efficacy at 10 μM
T2 construct: expressed in transfected cells; host or cells: CHO cells (transient transfection, Lipofectamine)
T2 sequence (P48169 36-554): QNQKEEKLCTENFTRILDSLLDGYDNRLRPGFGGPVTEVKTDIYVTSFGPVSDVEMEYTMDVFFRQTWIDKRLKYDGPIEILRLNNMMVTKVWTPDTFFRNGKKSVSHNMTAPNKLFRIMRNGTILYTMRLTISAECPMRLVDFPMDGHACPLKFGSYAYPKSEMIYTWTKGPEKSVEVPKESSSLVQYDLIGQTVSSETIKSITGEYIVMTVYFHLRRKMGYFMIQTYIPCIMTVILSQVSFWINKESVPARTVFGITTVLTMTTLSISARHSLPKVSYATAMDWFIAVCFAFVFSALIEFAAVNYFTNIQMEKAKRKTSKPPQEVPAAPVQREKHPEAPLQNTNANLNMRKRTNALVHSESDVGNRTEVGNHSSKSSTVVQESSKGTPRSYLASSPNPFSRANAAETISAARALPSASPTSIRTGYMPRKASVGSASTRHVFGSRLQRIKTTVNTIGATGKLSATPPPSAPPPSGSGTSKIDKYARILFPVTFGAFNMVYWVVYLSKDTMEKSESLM
T2 sequence (P28472 26-473): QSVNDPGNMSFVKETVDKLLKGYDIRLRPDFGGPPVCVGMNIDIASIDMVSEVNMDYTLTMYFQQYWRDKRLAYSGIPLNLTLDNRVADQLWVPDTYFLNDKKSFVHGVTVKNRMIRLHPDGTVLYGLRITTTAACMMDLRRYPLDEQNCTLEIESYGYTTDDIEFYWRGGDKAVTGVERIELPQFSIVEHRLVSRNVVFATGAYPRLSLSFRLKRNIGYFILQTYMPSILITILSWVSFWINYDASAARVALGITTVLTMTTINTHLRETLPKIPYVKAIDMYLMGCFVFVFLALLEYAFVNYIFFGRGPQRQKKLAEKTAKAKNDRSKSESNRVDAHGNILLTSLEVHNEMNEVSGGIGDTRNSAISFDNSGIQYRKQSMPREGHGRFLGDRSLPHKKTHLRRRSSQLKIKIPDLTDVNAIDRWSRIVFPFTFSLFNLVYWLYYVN
T2 sequence (O14764 17-452 partner limits assumed): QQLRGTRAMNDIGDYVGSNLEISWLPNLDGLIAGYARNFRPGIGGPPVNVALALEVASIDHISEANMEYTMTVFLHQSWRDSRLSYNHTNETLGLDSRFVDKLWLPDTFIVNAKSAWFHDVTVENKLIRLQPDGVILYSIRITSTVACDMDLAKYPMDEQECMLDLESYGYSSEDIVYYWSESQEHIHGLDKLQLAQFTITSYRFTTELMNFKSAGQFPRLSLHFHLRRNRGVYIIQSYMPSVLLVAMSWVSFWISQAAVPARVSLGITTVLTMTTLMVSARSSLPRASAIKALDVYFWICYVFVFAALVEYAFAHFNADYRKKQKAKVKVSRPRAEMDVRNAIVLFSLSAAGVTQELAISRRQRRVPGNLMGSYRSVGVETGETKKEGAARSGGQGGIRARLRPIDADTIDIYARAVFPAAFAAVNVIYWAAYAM

[4] = test system: PTZ-treated male CD-1 mice; experiment: Acute PTZ (pentylenetetrazol-induced seizure) method in mice; type: in vivo; settings: Mus musculus, PO (oral administration), latency to tonic seizures, read-out: Anticonvulsive Effect Dose (minimal effective anticonvulsant dose)
Method: The anticonvulsant effect of test compounds were assessed in the pentylenetetazol-induced seizure assay in mice similar to methods described in Giardina & Gasior (2009) Curr Protoc Pharmacol., Chapter 5. Male CD-1 mice were housed in groups of five under controlled conditions (temperature of 22±2° C. and 12:12 light-dark cycle, lights on at 8:00 am) and water and food were available ad libitum. The mice were housed for 1 week prior to behavioral testing, at which time they weighed 25-35 g. Pentylenetetrazol (PTZ, Sigma) was dissolved in sterile 0.9% saline at a concentration of 12 mg/mL concentration for subcutaneous administration. Test compounds were formulated and administered via oral gavage or intraperitoneal injection at a predetermined time-point (typically 30 or 60 minutes) prior to PTZ injection. All solutions were made fresh and were given in a volume of 10 ml/kg body weight.
Mice were acclimated to the test room for at least 30 min before compound administration. Mice were randomized into at least four test groups (vehicle and at least three doses of the test compound) with 10 mice per group. […] Following the drug pretreatment time the mice were injected s.c. with PTZ (120 mg/kg). Immediately following the PTZ injection, mice were individually placed into observation chambers (25×15×15 cm) and a three-channel timer was started. Each mouse was continuously observed for 30 min and the following behaviors were recorded by observers blinded to the treatments: 1) latency to clonic convulsions that persist for 3 sec and followed by an absence of righting reflex 2) latency to tonic convulsions, characterized by the rigid extension of all four limbs that exceeded a 90 degree angle with the body 3) latency to death 4) number of clonic and tonic convulsions. Data are presented as mean±S.E.M and one-way analysis of variance with Dunnett's or Bonferroni's post-hoc test was used to detect significant differences in latency and number between the vehicle and dose group. p values<0.05 were regarded as statistically significant.

male Sprague Dawley rats = experiment: Loss of righting reflex in rats; type: in vivo; settings: Rat IV, 5 mpk
Method: Loss of Righting Reflex in Rats
The plasma pharmacokinetics and a qualitative assessment of sedation were obtained in male Sprague Dawley rats according to the following procedure. Rats were dosed by intravenous bolus dose (60 seconds) via the foot dorsal vein at doses ranging from 5 to 15 mg/kg in an appropriate vehicle. In order to assess sedation, rats were gently restrained by hand to a lateral position for dose administration. […] If the animal was unable to return to an upright position, the time was recorded as the onset of loss of righting reflex (LRR). […] Sluggish or incomplete righting twice consecutively within a 30 second interval qualifies as a loss of righting reflex. After onset of LRR, animals were assessed every 5 minutes in the same manner. Recovery of righting reflex is defined as the ability of a rat to right itself completely within 20 seconds of being placed in dorsal recumbency. The duration of LRR is defined as the time interval between LRR and the return of righting reflex.

Compound: C[C@]12CC[C@H]3[C@@H](CC[C@@H]4C[C@@](O)(C(F)F)CC[C@@H]43)[C@@H]1CC[C@@H]2C(=O)Cn1ccnn1 [SG-5]
- IC50 [1]: 100 to 500 nM
- Emax at 10 µM [2]: > 500%
- Emax at 10 µM [3]: > 500%

Compound: COC[C@@]1(O)CC[C@H]2[C@@H](CC[C@@H]3[C@@H]2CC[C@]2(C)[C@@H](C(=O)Cn4cnnn4)CC[C@@H]32)C1 [SI-1]
- IC50 [1]: 100 to 500 nM
- minimal effective dose [4]: 1 to 3 mg/kg
- Emax at 10 µM [2]: 100 to 500%
- Emax at 10 µM [3]: > 500%

Compound: COC[C@@]1(O)CC[C@H]2[C@@H](CC[C@@H]3[C@@H]2CC[C@]2(C)[C@@H](C(=O)Cn4ccnn4)CC[C@@H]32)C1 [SI-2]
- IC50 [1]: 100 to 500 nM
- minimal effective dose [4]: 1 to 3 mg/kg
- Emax at 10 µM [2]: 100 to 500%
- Emax at 10 µM [3]: > 500%

Compound: COC[C@@]1(O)CC[C@H]2[C@@H](CC[C@@H]3[C@@H]2CC[C@]2(C)[C@@H](C(=O)Cn4nnnc4C)CC[C@@H]32)C1 [SI-3]
- minimal effective dose [4]: ≤ 1 mg/kg
- Emax at 10 µM [2]: 100 to 500%
- Emax at 10 µM [3]: > 500%

Compound: C[C@@H]1C[C@H]2[C@@H](CC[C@@H]3[C@@H]2CC[C@]2(C)[C@@H](C(=O)Cn4nccn4)CC[C@@H]32)C[C@]1(C)O [SN-2]
- IC50 [1]: 1 to 50 nM
- Emax at 10 µM [2]: 100 to 500%
- Emax at 10 µM [3]: 100 to 500%

Compound: CO[C@H]1C[C@H]2[C@@H](CC[C@@H]3[C@@H]2CC[C@]2(C)[C@@H](C(=O)Cn4nccn4)CC[C@@H]32)C[C@]1(C)O [SU-2]
- IC50 [1]: 50 to 100 nM
- Emax at 10 µM [2]: 100 to 500%
- Emax at 10 µM [3]: > 500%

Compound: C[C@@]1(O)CC[C@@H]2[C@H]3CC[C@]4(C)[C@@H](C(=O)Cn5ccnn5)CC[C@H]4[C@@H]3C[C@@H](F)[C@H]2C1 [SV-1]
- IC50 [1]: 100 to 500 nM
- minimal effective dose [4]: 1 to 3 mg/kg
- Emax at 10 µM [2]: 100 to 500%
- Emax at 10 µM [3]: 100 to 500%

Compound: C[C@@]1(O)CC[C@@H]2[C@H]3CC[C@]4(C)[C@@H](C(=O)Cn5ncnn5)CC[C@H]4[C@@H]3C[C@@H](F)[C@H]2C1 [SV-3]
- Duration of Rat LRR (male Sprague Dawley rats): A (A ≤ 20 min)
- Emax at 10 µM [2]: 100 to 500%
- Emax at 10 µM [3]: > 500%

Compound: C[C@@]1(O)CC[C@@H]2[C@H]3CC[C@]4(C)[C@@H](C(=O)Cn5cnnn5)CC[C@H]4[C@@H]3C[C@@H](F)[C@H]2C1 [SV-4]
- minimal effective dose [4]: 1 to 3 mg/kg
- Emax at 10 µM [2]: 100 to 500%
- Emax at 10 µM [3]: 100 to 500%

Compound: Cc1nnnn1CC(=O)[C@H]1CC[C@H]2[C@@H]3C[C@@H](F)[C@H]4C[C@](C)(O)CC[C@@H]4[C@H]3CC[C@]12C [SV-6]
- Emax at 10 µM [2]: 100 to 500%
- Emax at 10 µM [3]: 100 to 500%

Compound: CCO[C@H]1C[C@H]2[C@@H](CC[C@@H]3[C@@H]2CC[C@]2(C)[C@@H](C(=O)Cn4nccn4)CC[C@@H]32)C[C@]1(C)O [SY-2]
- IC50 [1]: 100 to 500 nM
- Emax at 10 µM [2]: 100 to 500%
- Emax at 10 µM [3]: > 500%

Compound: C[C@H]1C[C@H]2[C@@H](CC[C@@H]3[C@@H]2CC[C@]2(C)[C@@H](C(=O)Cn4ccnn4)CC[C@@H]32)C[C@]1(C)O [SZ-1]
- IC50 [1]: 50 to 100 nM
- Emax at 10 µM [2]: 100 to 500%

Compound: C[C@H]1C[C@H]2[C@@H](CC[C@@H]3[C@@H]2CC[C@]2(C)[C@@H](C(=O)Cn4nccn4)CC[C@@H]32)C[C@]1(C)O [SZ-2]
- IC50 [1]: 50 to 100 nM
- Emax at 10 µM [2]: 100 to 500%
- Emax at 10 µM [3]: 100 to 500%
